Earlier results in publication PMC4474874, “Effect of JAK Inhibitors on Release of CXCL9, CXCL10 and CXCL11 from Human Airway Epithelial Cells” (PLoS ONE, 2015).
Where two headings read alike, the source gives them in different places.

Assays:
[1] = tested on: PKA; set-up: method as in PMID 18094329; details: at concentrations >5μM; cited from earlier work
[2] = tested on: Lck; set-up: method as in PMID 18094329; details: at concentrations >5μM; cited from earlier work
[3] = tested on: chronic lymphocytic leukaemia cells; set-up: method as in PMID 20716767; details: cited from earlier work
[4] = tested on: CHK1; set-up: method as in PMID 18094329; details: inactive or IC50 >30μM; read-out: IC50 against CHK1; cited from earlier work
[5] = tested on: AuroraA; set-up: method as in PMID 18094329; details: inactive or IC50 >30μM; read-out: IC50 against AuroraA; cited from earlier work
[6] = tested on: GSK3b; set-up: method as in PMID 18094329; details: inactive or IC50 >30μM; read-out: IC50 against GSK3b; cited from earlier work
[7] = tested on: INSR; set-up: method as in PMID 18094329; details: inactive or IC50 >30μM; read-out: IC50 against INSR; cited from earlier work
[8] = tested on: PDK1; set-up: method as in PMID 18094329; details: inactive or IC50 >30μM; read-out: IC50 against PDK1; cited from earlier work
[9] = tested on: IKKb; set-up: method as in PMID 18094329; details: inactive or IC50 >30μM; read-out: IC50 against IKKb; cited from earlier work
[10] = tested on: AKT; set-up: method as in PMID 18094329; details: inactive or IC50 >30μM; read-out: IC50 against AKT; cited from earlier work
[11] = tested on: MAPKAP-K2; set-up: method as in PMID 18094329; details: inactive or IC50 >30μM; read-out: IC50 against MAPKAP-K2; cited from earlier work
[12] = tested on: TaoK3; set-up: method as in PMID 18094329; details: inactive or IC50 >30μM; read-out: IC50 against TaoK3; cited from earlier work
[13] = biological target: Protein kinase C β2; details: read-out: IC50 Protein kinase C β2 Km; ATP at the Km; ref Coe et al., 25; cited from earlier work
[14] = tested on: JAK3; set-up: method as in Coe et al., 25; details: ref Coe et al., 25, cited from earlier work
[15] = tested on: human T lymphocytes (JAK1/2); set-up: method as in Coe et al., 25; details: ref Coe et al., 25; read-out: IC50 IL-12-induced IFNγ release by human T lymphocytes (JAK1/2); cited from earlier work
[16] = tested on: GSK3β; set-up: method as in Coe et al., 25; details: ATP at the Km; ref Coe et al., 25; cited from earlier work
[17] = tested on: JAK1; set-up: method as in Coe et al., 25; details: ref Coe et al., 25, cited from earlier work
[18] = tested on: TrkA; set-up: method as in Coe et al., 25; details: ATP at the Km; ref Coe et al., 25; cited from earlier work
[19] = tested on: MAP4K4; set-up: method as in Coe et al., 25; details: ATP at the Km; ref Coe et al., 25; cited from earlier work
[20] = tested on: TAOK2; set-up: method as in Coe et al., 25; details: ATP at the Km; ref Coe et al., 25; cited from earlier work

For `C[C@@H]1CCN(C(=O)N2CCCC2)C[C@@H]1N(C)c1ncnc2[nH]ccc12` [PF956980], the “effect against PKA” value [1] is given as “modest effects”, the “effect against Lck” value [2] is given as “modest effects” and the “concentration effective against IL-4-induced cytotoxic resistance” value [3] is given as ~ 0.3 μM. For the same compound, the IC50 [4] was greater than 30000 nM, the IC50 [5] was greater than 30000 nM and the IC50 [6] was greater than 30000 nM. For the same compound, the IC50 [7] was greater than 30000 nM, the IC50 [8] was greater than 30000 nM and the IC50 [9] was greater than 30000 nM. The IC50 [10] was greater than 30000 nM, the IC50 [11] was greater than 30000 nM and the IC50 [12] was greater than 30000 nM.

For `CCc1cc(O)ccc1-c1ccc2c(-c3nc4ccccc4[nH]3)n[nH]c2c1` [PF1367550, 4-(3-(1H-benzo[d]imidazol-2-yl)-1H-indazol-6-yl)-3-ethylphenol], the IC50 [13] is listed as 665 nM, the IC50 ([14]; 1mM ATP, read-out: IC50 JAK3 1 mM) is listed as 14 nM and the IC50 ([14]; ATP at the Km, read-out: IC50 JAK3 Km) is listed as 1 nM. The IC50 [15] was 45 nM, the IC50 [16] was 617 nM and the IC50 ([17]; 1mM ATP, read-out: IC50 JAK1 1 mM) was 0.4 nM. The IC50 ([17]; ATP at the Km, read-out: IC50 JAK1 Km) was 0.8 nM, the IC50 [18] was 227 nM and the IC50 [19] was 60 nM. For the same compound, the IC50 [20] was 781 nM.
